In ChEMBL document CHEMBL6120971 (J Med Chem, 2024):
Calls of active or inactive are those of the source. The rule behind the calls is not given here.

Legend:
[1] = biological target: T1, von Hippel-Lindau disease tumor suppressor/Hepatocyte growth factor receptor (Homo sapiens, UniProt P08581+P40337); experiment: PROTAC activity at VHL/c-MET in human MKN-45 cells assessed as induction of c-MET degradation by measuring residual activity at 100 nM incubated for 24 hrs by Western blot analysis (reference value: 100 %); assay type: cell-based
Target sequence in this assay (P40337 whole entry partner): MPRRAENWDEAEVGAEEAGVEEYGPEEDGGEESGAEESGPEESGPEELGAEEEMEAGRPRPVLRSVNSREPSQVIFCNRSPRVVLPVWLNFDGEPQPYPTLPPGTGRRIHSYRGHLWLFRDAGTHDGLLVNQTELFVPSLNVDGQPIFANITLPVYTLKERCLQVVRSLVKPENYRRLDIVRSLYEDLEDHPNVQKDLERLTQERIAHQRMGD
Target sequence in this assay (P08581 25-1390 limits assumed): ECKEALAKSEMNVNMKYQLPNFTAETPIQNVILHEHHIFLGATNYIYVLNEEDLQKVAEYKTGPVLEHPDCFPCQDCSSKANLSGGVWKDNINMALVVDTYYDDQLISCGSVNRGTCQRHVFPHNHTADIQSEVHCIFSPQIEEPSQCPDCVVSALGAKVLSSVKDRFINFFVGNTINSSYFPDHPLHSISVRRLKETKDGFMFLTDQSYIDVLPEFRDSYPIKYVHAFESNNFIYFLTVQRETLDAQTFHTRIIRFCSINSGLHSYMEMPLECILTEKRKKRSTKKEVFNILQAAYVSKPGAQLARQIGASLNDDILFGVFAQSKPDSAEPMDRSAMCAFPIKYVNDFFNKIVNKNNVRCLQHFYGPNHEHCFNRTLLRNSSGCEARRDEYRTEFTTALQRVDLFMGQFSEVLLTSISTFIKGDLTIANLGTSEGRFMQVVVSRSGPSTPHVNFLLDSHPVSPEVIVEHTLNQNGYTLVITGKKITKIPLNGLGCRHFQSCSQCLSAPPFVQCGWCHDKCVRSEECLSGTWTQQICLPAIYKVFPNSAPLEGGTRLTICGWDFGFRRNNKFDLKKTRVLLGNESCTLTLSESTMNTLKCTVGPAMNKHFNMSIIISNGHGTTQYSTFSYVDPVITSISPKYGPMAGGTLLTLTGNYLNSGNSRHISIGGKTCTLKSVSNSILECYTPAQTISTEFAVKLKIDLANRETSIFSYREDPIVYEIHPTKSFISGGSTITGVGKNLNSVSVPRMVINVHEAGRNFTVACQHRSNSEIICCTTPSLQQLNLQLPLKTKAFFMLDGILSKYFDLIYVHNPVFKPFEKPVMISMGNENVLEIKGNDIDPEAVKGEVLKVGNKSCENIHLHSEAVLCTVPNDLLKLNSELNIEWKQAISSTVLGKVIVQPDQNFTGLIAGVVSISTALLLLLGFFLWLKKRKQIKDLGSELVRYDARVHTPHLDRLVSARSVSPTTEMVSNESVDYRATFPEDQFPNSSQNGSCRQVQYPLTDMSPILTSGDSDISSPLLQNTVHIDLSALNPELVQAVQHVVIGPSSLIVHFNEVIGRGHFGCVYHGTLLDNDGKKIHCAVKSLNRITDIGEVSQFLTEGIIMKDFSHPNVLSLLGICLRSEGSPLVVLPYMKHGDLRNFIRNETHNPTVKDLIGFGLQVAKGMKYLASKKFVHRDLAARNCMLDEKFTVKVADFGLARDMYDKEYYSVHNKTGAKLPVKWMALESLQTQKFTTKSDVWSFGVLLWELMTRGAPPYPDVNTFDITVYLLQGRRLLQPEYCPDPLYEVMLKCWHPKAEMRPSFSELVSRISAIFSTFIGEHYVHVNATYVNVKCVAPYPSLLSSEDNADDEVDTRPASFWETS

MKN-45 [2] = experiment: Induction of c-MET degradation in human MKN-45 cells assessed as residual activity at 100 nM incubated for 24 hrs by Western blot analysis (reference value: 100 %); assay type: cell-based
MKN-45 [3] = experiment: Antiproliferative activity against human MKN-45 cells incubated for 72 hrs by CCK8 assay; assay type: functional, cell-based; settings: MKN-45, 72 h
[4] = biological target: T1, von Hippel-Lindau disease tumor suppressor/Hepatocyte growth factor receptor; experiment: PROTAC activity at VHL/c-MET in human MKN-45 cells assessed as induction of c-MET degradation at 100 to 1000 nM incubated for 24 hrs by Western blot analysis relative to control; assay type: cell-based; settings: dose 100-1000 nM
Target sequence in this assay (P40337 whole entry partner): as the sequence (P40337 whole entry partner) above
Target sequence in this assay (P08581 25-1390 limits assumed): as the sequence (P08581 25-1390 limits assumed) above

[5] = biological target: T2, Protein cereblon/Hepatocyte growth factor receptor (Homo sapiens, UniProt P08581+Q96SW2); experiment: PROTAC activity at CRBN/c-MET in human MKN-45 cells assessed as induction of c-MET degradation at 3.125 to 50 nM by Western blot analysis; assay type: cell-based; settings: dose 3.125-50 nM
T2 sequence (P08581 25-1390 limits assumed): as above
T2 sequence (Q96SW2 whole entry partner): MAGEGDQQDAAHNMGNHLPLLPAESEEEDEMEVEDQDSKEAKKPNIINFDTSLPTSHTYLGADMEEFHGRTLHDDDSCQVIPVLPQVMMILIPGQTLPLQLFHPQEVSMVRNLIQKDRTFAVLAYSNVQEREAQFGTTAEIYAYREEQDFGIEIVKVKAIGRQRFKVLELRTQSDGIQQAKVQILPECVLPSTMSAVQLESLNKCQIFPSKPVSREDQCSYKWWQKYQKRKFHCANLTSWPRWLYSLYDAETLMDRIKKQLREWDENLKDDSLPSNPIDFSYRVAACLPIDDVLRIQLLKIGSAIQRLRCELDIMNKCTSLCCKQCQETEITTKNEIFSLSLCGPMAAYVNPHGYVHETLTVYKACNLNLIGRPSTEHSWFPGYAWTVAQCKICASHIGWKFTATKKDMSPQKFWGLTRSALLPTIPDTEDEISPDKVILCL

[6] = biological target: T1, von Hippel-Lindau disease tumor suppressor/Hepatocyte growth factor receptor; experiment: PROTAC activity at VHL/c-MET (unknown origin); assay type: protein
Target sequence in this assay (P08581 whole entry): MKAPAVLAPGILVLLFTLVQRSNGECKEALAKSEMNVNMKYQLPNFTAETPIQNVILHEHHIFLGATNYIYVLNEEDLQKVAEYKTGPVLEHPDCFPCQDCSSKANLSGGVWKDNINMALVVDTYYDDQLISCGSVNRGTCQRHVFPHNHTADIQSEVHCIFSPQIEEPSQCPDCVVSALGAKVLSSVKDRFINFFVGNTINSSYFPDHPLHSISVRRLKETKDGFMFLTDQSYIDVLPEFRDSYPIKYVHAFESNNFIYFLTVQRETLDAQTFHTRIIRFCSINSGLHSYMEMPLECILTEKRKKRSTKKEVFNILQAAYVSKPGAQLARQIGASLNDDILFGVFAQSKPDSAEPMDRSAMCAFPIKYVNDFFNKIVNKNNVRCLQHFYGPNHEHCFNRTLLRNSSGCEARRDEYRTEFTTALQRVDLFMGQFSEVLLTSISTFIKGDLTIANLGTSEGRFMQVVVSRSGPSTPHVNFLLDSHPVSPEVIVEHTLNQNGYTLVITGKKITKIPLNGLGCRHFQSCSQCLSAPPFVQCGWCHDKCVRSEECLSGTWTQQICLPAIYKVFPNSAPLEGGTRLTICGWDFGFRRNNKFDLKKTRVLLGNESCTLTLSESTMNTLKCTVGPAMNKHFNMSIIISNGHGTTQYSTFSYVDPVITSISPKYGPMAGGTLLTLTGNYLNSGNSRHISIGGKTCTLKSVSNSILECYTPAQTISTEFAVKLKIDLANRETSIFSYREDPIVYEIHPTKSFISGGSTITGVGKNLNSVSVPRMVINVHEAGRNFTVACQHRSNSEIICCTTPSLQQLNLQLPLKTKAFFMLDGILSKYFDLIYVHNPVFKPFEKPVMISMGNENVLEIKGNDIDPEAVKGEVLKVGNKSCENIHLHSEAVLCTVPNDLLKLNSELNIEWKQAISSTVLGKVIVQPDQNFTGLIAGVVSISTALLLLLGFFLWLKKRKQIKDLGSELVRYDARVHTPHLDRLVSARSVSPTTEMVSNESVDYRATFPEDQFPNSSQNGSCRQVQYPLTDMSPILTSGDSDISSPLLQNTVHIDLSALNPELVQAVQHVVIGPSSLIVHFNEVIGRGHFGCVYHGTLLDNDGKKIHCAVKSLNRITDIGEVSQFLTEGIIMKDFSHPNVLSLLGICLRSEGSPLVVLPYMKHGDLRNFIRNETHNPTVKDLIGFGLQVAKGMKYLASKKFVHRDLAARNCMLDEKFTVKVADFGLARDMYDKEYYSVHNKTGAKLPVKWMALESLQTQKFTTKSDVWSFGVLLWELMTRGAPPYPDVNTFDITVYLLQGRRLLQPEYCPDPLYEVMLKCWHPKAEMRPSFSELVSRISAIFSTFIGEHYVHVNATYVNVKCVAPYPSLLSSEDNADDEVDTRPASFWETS
Target sequence in this assay (P40337 whole entry): as the sequence (P40337 whole entry partner) above

[7] = biological target: T2, Protein cereblon/Hepatocyte growth factor receptor; experiment: PROTAC activity at CRBN/c-MET in human MKN-45 cells assessed as induction of c-MET degradation at 1000 nM incubated for 24 hrs by Western blot analysis; assay type: cell-based

Structure (SMILES) | Activity [1] [%] | IC50 (MKN-45 [3]) [nM] | also measured
Cc1ncsc1-c1ccc([C@H](C)NC(=O)[C@@H]2C[C@@H](O)CN2C(=O)[C@@H](NC(=O)CN2CCN(CC(=O)N3CCC(COc4cnc(-c5cccc(Cn6nc(-c7cccc(C#N)c7)ccc6=O)c5)nc4)CC3)CC2)C(C)(C)C)cc1 | 40 | – | –
Cc1ncsc1-c1ccc([C@H](C)NC(=O)[C@@H]2C[C@@H](O)CN2C(=O)[C@@H](NC(=O)CCOCCOCCC(=O)N2CCC(n3cc(-c4cnc(N)c(O[C@H](C)c5c(Cl)ccc(F)c5Cl)c4)cn3)CC2)C(C)(C)C)cc1 | 107 | – | –
Cc1ncsc1-c1ccc([C@H](C)NC(=O)[C@@H]2C[C@@H](O)CN2C(=O)[C@@H](NC(=O)CN2CCN(CCCCCCNC(=O)c3ccc(-c4cnc5ncc(Cc6ccc7ncccc7c6)n5n4)cc3F)CC2)C(C)(C)C)cc1 | 79 | – | –
Cc1ncsc1-c1ccc([C@H](C)NC(=O)[C@@H]2C[C@@H](O)CN2C(=O)[C@@H](NC(=O)CCOCCOCCOCCC(=O)N2CCC(COc3cnc(-c4cccc(Cn5nc(-c6cccc(C#N)c6)ccc5=O)c4)nc3)CC2)C(C)(C)C)cc1 | 56 | – | –
C[C@@H](Oc1cc(-c2cnn(C3CCNCC3)c2)cnc1N)c1c(Cl)ccc(F)c1Cl | – | – | Activity (MKN-45 [2]): 110%
Cc1ncsc1-c1ccc([C@H](C)NC(=O)[C@@H]2C[C@@H](O)CN2C(=O)[C@@H](NC(=O)CCCCCCCCCCC(=O)N2CCC(n3cc(-c4cnc(N)c(O[C@H](C)c5c(Cl)ccc(F)c5Cl)c4)cn3)CC2)C(C)(C)C)cc1 | 73 | > 200 | –
Cc1ncsc1-c1ccc([C@H](C)NC(=O)[C@@H]2C[C@@H](O)CN2C(=O)[C@@H](NC(=O)COCCOCCNC(=O)c2ccc(-c3cnc4ncc(Cc5ccc6ncccc6c5)n4n3)cc2F)C(C)(C)C)cc1 | 70 | – | –
Cc1ncsc1-c1ccc([C@H](C)NC(=O)[C@@H]2C[C@@H](O)CN2C(=O)[C@@H](NC(=O)CCCCCCCNC(=O)c2ccc(-c3cnc4ncc(Cc5ccc6ncccc6c5)n4n3)cc2F)C(C)(C)C)cc1 | 19 | 52.3 | Activity [4]: > 80%
CN1C(=O)CCC(N2C(=O)c3ccc(N4CCN(CC5CCN(C(=O)c6ccc(-c7cnc8ncc(Cc9ccc%10ncccc%10c9)n8n7)cc6F)CC5)CC4)cc3C2=O)C1=O (stereo unspecified) | – | 73.5 | Activity [5]: inactive
COc1cc2c(Oc3ccc(NC(=O)C4(C(=O)Nc5ccc(F)cc5)CC4)cc3F)ccnc2cc1OCCCOCCCOCCC(=O)N[C@H](C(=O)N1C[C@H](O)C[C@H]1C(=O)NCc1ccc(-c2scnc2C)cc1)C(C)(C)C | – | – | DC50 [6]: > 10 nM
Cc1ncsc1-c1ccc([C@H](C)NC(=O)[C@@H]2C[C@@H](O)CN2C(=O)[C@@H](NC(=O)CCCCCCNC(=O)c2ccc(-c3cnc4ncc(Cc5ccc6ncccc6c5)n4n3)cc2F)C(C)(C)C)cc1 | – | > 200 | –
Cc1ncsc1-c1ccc([C@H](C)NC(=O)[C@@H]2C[C@@H](O)CN2C(=O)[C@@H](NC(=O)COCCOCCOCCNC(=O)c2ccc(-c3cnc4ncc(Cc5ccc6ncccc6c5)n4n3)cc2F)C(C)(C)C)cc1 | 73 | – | –
Cc1ncsc1-c1ccc([C@H](C)NC(=O)[C@@H]2C[C@@H](O)CN2C(=O)[C@@H](NC(=O)CCCCCCC(=O)N2CCC(n3cc(-c4cnc(N)c(O[C@H](C)c5c(Cl)ccc(F)c5Cl)c4)cn3)CC2)C(C)(C)C)cc1 | 78 | > 200 | –
Cc1ncsc1-c1ccc([C@H](C)NC(=O)[C@@H]2C[C@@H](O)CN2C(=O)[C@@H](NC(=O)CCCCCNC(=O)c2ccc(-c3cnc4ncc(Cc5ccc6ncccc6c5)n4n3)cc2F)C(C)(C)C)cc1 | 68 | 74.9 | –
Cc1ncsc1-c1ccc([C@H](C)NC(=O)[C@@H]2C[C@@H](O)CN2C(=O)[C@@H](NC(=O)CN2CCN(CCCCCC(=O)N3CCC(n4cc(-c5cnc(N)c(O[C@H](C)c6c(Cl)ccc(F)c6Cl)c5)cn4)CC3)CC2)C(C)(C)C)cc1 | 115 | – | –
Cc1ncsc1-c1ccc([C@H](C)NC(=O)[C@@H]2C[C@@H](O)CN2C(=O)[C@@H](NC(=O)CCCCCCC(=O)N2CCC(COc3cnc(-c4cccc(Cn5nc(-c6cccc(C#N)c6)ccc5=O)c4)nc3)CC2)C(C)(C)C)cc1 | 64 | 35.5 | –
Cc1ncsc1-c1ccc([C@H](C)NC(=O)[C@@H]2C[C@@H](O)CN2C(=O)[C@@H](NC(=O)CCCCCCCCCCNC(=O)c2ccc(-c3cnc4ncc(Cc5ccc6ncccc6c5)n4n3)cc2F)C(C)(C)C)cc1 | – | 47.8 | –
Cc1ncsc1-c1ccc([C@H](C)NC(=O)[C@@H]2C[C@@H](O)CN2C(=O)[C@@H](NC(=O)CCOCCOCCOCCC(=O)N2CCC(n3cc(-c4cnc(N)c(O[C@H](C)c5c(Cl)ccc(F)c5Cl)c4)cn3)CC2)C(C)(C)C)cc1 | 106 | – | –
Cc1ncsc1-c1ccc([C@H](C)NC(=O)[C@@H]2C[C@@H](O)CN2C(=O)[C@@H](NC(=O)CCCCCCCCCCC(=O)N2CCC(COc3cnc(-c4cccc(Cn5nc(-c6cccc(C#N)c6)ccc5=O)c4)nc3)CC2)C(C)(C)C)cc1 | 56 | 149 | –

Structure (SMILES) | Activity [1] [%] | IC50 (MKN-45 [3]) [nM] | also measured
Cc1ncsc1-c1ccc([C@H](C)NC(=O)[C@@H]2C[C@@H](O)CN2C(=O)[C@@H](NC(=O)CN2CCN(CCCCNC(=O)c3ccc(-c4cnc5ncc(Cc6ccc7ncccc7c6)n5n4)cc3F)CC2)C(C)(C)C)cc1 | 78 | – | –
Cc1ncsc1-c1ccc([C@H](C)NC(=O)[C@@H]2C[C@@H](O)CN2C(=O)[C@@H](NC(=O)CCCCC(=O)N2CCC(n3cc(-c4cnc(N)c(O[C@H](C)c5c(Cl)ccc(F)c5Cl)c4)cn3)CC2)C(C)(C)C)cc1 | 100 | > 200 | –
O=C(COc1cccc2c1C(=O)N(C1CCC(=O)NC1=O)C2=O)NCCCCCCCCNC(=O)c1ccc(-c2cnc3ncc(Cc4ccc5ncccc5c4)n3n2)cc1F (stereo unspecified) | – | 15.3 | Activity [7]: inactive
Cc1ncsc1-c1ccc([C@H](C)NC(=O)[C@@H]2C[C@@H](O)CN2C(=O)[C@@H](NC(=O)CCCCCCCCCCCNC(=O)c2ccc(-c3cnc4ncc(Cc5ccc6ncccc6c5)n4n3)cc2F)C(C)(C)C)cc1 | 51 | 29.1 | –
Cc1ncsc1-c1ccc([C@H](C)NC(=O)[C@@H]2C[C@@H](O)CN2C(=O)[C@@H](NC(=O)CCCCC(=O)N2CCC(COc3cnc(-c4cccc(Cn5nc(-c6cccc(C#N)c6)ccc5=O)c4)nc3)CC2)C(C)(C)C)cc1 | 74 | > 200 | –
Cc1ncsc1-c1ccc([C@H](C)NC(=O)[C@@H]2C[C@@H](O)CN2C(=O)[C@@H](NC(=O)CN2CCN(CCCCCC(=O)N3CCC(COc4cnc(-c5cccc(Cn6nc(-c7cccc(C#N)c7)ccc6=O)c5)nc4)CC3)CC2)C(C)(C)C)cc1 | 71 | – | –
Cc1ncsc1-c1ccc([C@H](C)NC(=O)[C@@H]2C[C@@H](O)CN2C(=O)[C@@H](NC(=O)CCOCCOCCOCCOCCC(=O)N2CCC(COc3cnc(-c4cccc(Cn5nc(-c6cccc(C#N)c6)ccc5=O)c4)nc3)CC2)C(C)(C)C)cc1 | 62 | – | –
Cc1ncsc1-c1ccc([C@H](C)NC(=O)[C@@H]2C[C@@H](O)CN2C(=O)[C@@H](NC(=O)CCCCCCCCCNC(=O)c2ccc(-c3cnc4ncc(Cc5ccc6ncccc6c5)n4n3)cc2F)C(C)(C)C)cc1 | 22 | 20.5 | –
CN1CCC(COc2cnc(-c3cccc(Cn4nc(-c5cccc(C#N)c5)ccc4=O)c3)nc2)CC1 | – | – | Activity (MKN-45 [2]): 107%
Cc1ncsc1-c1ccc([C@H](C)NC(=O)[C@@H]2C[C@@H](O)CN2C(=O)[C@@H](NC(=O)CN2CCN(CCNC(=O)c3ccc(-c4cnc5ncc(Cc6ccc7ncccc7c6)n5n4)cc3F)CC2)C(C)(C)C)cc1 | 61 | – | –
Cc1ncsc1-c1ccc([C@H](C)NC(=O)[C@@H]2C[C@@H](O)CN2C(=O)[C@@H](NC(=O)CN2CCN(CC(=O)N3CCC(n4cc(-c5cnc(N)c(O[C@H](C)c6c(Cl)ccc(F)c6Cl)c5)cn4)CC3)CC2)C(C)(C)C)cc1 | 123 | – | –
Cc1ncsc1-c1ccc([C@H](C)NC(=O)[C@@H]2C[C@@H](O)CN2C(=O)[C@@H](NC(=O)CCCCCCCCNC(=O)c2ccc(-c3cnc4ncc(Cc5ccc6ncccc6c5)n4n3)cc2F)C(C)(C)C)cc1 | – | 44.7 | –
Cc1ncsc1-c1ccc([C@H](C)NC(=O)[C@@H]2C[C@@H](O)CN2C(=O)[C@@H](NC(=O)CN2CCN(CCCC(=O)N3CCC(COc4cnc(-c5cccc(Cn6nc(-c7cccc(C#N)c7)ccc6=O)c5)nc4)CC3)CC2)C(C)(C)C)cc1 | 61 | – | –
O=C(COc1cccc2c1C(=O)N(C1CCC(=O)NC1=O)C2=O)NCCCCCCCCCCNC(=O)c1ccc(-c2cnc3ncc(Cc4ccc5ncccc5c4)n3n2)cc1F (stereo unspecified) | – | 27.3 | Activity [7]: inactive
Cc1ncsc1-c1ccc([C@H](C)NC(=O)[C@@H]2C[C@@H](O)CN2C(=O)[C@@H](NC(=O)CN2CCN(CCCC(=O)N3CCC(n4cc(-c5cnc(N)c(O[C@H](C)c6c(Cl)ccc(F)c6Cl)c5)cn4)CC3)CC2)C(C)(C)C)cc1 | 111 | – | –
Cc1ncsc1-c1ccc([C@H](C)NC(=O)[C@@H]2C[C@@H](O)CN2C(=O)[C@@H](NC(=O)COCCOCCOCCOCCNC(=O)c2ccc(-c3cnc4ncc(Cc5ccc6ncccc6c5)n4n3)cc2F)C(C)(C)C)cc1 | 75 | – | –
Cc1ncsc1-c1ccc([C@H](C)NC(=O)[C@@H]2C[C@@H](O)CN2C(=O)[C@@H](NC(=O)CCOCCOCCOCCOCCC(=O)N2CCC(n3cc(-c4cnc(N)c(O[C@H](C)c5c(Cl)ccc(F)c5Cl)c4)cn3)CC2)C(C)(C)C)cc1 | 127 | – | –
Cc1ncsc1-c1ccc([C@H](C)NC(=O)[C@@H]2C[C@@H](O)CN2C(=O)[C@@H](NC(=O)CCOCCOCCC(=O)N2CCC(COc3cnc(-c4cccc(Cn5nc(-c6cccc(C#N)c6)ccc5=O)c4)nc3)CC2)C(C)(C)C)cc1 | 66 | – | –
